Data on two molecules can be found in patent US10925858B2, “S-nitrosoglutathione (GSNO) and GSNO reductase inhibitors for use in therapy” (MUSC FOUNDATION FOR RESEARCH DEVELOPMENT, priority 2017, dated 2021).

One test relates to 3-nitrotyrosine. The experiment in a line: Western analysis of 3-nitrotyrosine in rat brains with TBI. In kind it is in vivo, Sprague Dawley rats. As to conditions: 24 hr after TBI, traumatic penumbra; GSNO 0.05 mg/kg i.v. or FeTPPS 3 mg/kg i.v. The protocol:
Western immunoblot analysis was performed by standard method using 50 μg of cell lysates. Following the SDS-PAGE electrophoresis, proteins were transferred from the gel onto the Polyvinylidene fluoride membrane (GE Healthcare Life Sciences, Marlborough, Mass.). Membranes were blocked with non-fat dry milk (Santa Cruz Biotechnology) or I-Block™ (ThermoFisher Scientific, Waltham, Mass.) for detection of phospho-proteins and incubated with primary antibodies, such as MBP (Santa Cruz Biotech Cat #: sc13914; RRID: AB_648798), phospho-(Ser^19) MLC (Abeam, Cat #: ab2480; RRID: AB_303094), MLC (Abeam, Cat #: ab79935; RRID:AB_1952220), P-actin (Santa Cruz Biotechnology, Cat #: sc-47778; RRID:AB_2714189), phospho-eNOS (Ser^1177) (Cell Signaling, Cat #: 9571; RRID: AB_329837, Danvers, Mass.), eNOS (Cell Signaling, Cat #: 32027), RhoA (Santa Cruz Biotechnology; Cat #: sc418; RRID: AB_628218) or 3-nitrotyrosine (Abeam, Cat #: ab61392; RRID: AB_942087). […]
All animals used in this study received humane care in compliance with the Medical University of South Carolina's (MUSC) guidance and the National Research Council's criteria for humane care. […] The group size was determined by power analysis based on our previous data (Khan et al., 2016b; Khan et al., 2009). […]

A short description of test [1]: Edema (brain water content) in CCI rat model of TBI. Type of test: in vivo, Sprague Dawley rats. As to conditions: 24 hr after TBI; GSNO 0.05 mg/kg i.v. or FeTPPS 3 mg/kg i.v. The source says:
All animals used in this study received humane care in compliance with the Medical University of South Carolina's (MUSC) guidance and the National Research Council's criteria for humane care. Animal procedures were approved by the institutional animal care and use committee of MUSC (AR #2703). For generation of CCI model of TBI, young adult male (˜3-4 months old) Sprague Dawley rats weighing between 260-300 g were randomly divided into four groups: 1) TBI animals treated with vehicle (TBI; n=13), 2) TBI with GSNO (0.05 mg/kg body weight/i.v.) treatment (TBI+GSNO; n=13), 3) TBI with FeTPPS (3 mg/kg body weight, i.v.) treatment (TBI+FeTPPS; n=13), 4) sham-operated treated with vehicle (Sham; n=13). The group size was determined by power analysis based on our previous data (Khan et al., 2016b; Khan et al., 2009). Ketamine (90 mg/kg body weight) and xylazine (10 mg/kg body weight) as surgical anesthesia were administered intraperitoneally. Analgesic buprenorphine was administered pre-emptively to alleviate pain following surgery. […]
At 24 h following CCI, animals were euthanized to determine brain water content (edema) as described earlier (Hoda et al., 2009; Khan et al., 2009). […] Each hemisphere was dried at 60° C. for 72 hours, and the dry weight was determined. Water content was calculated in ipsilateral hemisphere as: water content (%)=(wet weight−dry weight)/wet weight×100.

Another test relates to IFN-γ, IL-17. The experiment in a line: IFN-γ and IL-17 in spinal cords of passively immunized EAE mice, ELISA. In kind it is in vivo, SJL mice. As to conditions: T cells from GSNO treated vs untreated EAE mice. The protocol:
At the peak of EAE disease, the mice were sacrificed and CD4+ T cells were purified from draining lymph nodes (DLN) and spleens by CD4+ T cell isolation kit (Miltenyi, Auburn. Calif.). The purified T cells (2.5×10^6 cells/ml) were cultured in 96-well round-bottom microculture plates (Falcon Labware, Oxnard, Calif.) in RPMI-complete media containing RPMI 1640 (Life Technologies, Gaithersburg, Md.), 10% FBS, and 100 μg/ml streptomycin and penicillin (Atlanta Biologicals Norcross, Ga.), 1 mM glutamine, 1 mM nonessential amino acids, and 50 μM 2-mercaptoethanol (Sigma-Aldrich). For skewing of different CD4+ T cell subsets and their expansion, the isolated CD4+ T cells were stimulated with PLP139-151 (5 μg/ml) with IL-2 (10 ng/ml) for TH0, IL-2 (10 ng/ml), rhIL-12p35 (10 ng/ml), and anti-IL-4 (1 μg/ml) for TH1, or recombinant mouse IL-12/23p40 homodimer (10 ng/ml), anti-IFN-γ 1 (μg/ml), anti-IL-4 (1 μg/ml) for TO 17. All cytokines and antibodies were purchased from BD Biosciences (San Diego, Calif.). […]
(20-30×10^6 T cells in 300 μl RPMI media per mouse) were injected to naive SJL female mice (8-10 week old) via intraperitoneal route. […] Clinical EAE disease was measured as describe above.

As to `Cl.O=S(=O)([O-])c1ccc(-c2c3nc(c(-c4ccc(S(=O)(=O)O)cc4)c4ccc([nH]4)c(-c4ccc(S(=O)(=O)O)cc4)c4nc(c(-c5ccc(S(=O)(=O)O)cc5)c5ccc2[nH]5)C=C4)C=C3)cc1.[Fe]` [FeTPPS, 5,10,15,20-Tetrakis(4-sulfonatophenyl)porphyrinato Iron (III), Cl, reference compound], in the test with 3-nitrotyrosine, the “brain levels of 3-nitrotyrosine” value was “reduced”. Further, the “TBI-induced increase in brain water content” value in test [1] is “reduced”.
As to `N[C@@H](CCC(=O)N[C@@H](CSN=O)C(=O)NCC(=O)O)C(=O)O` [GSNO, S-nitrosoglutathione], the “brain levels of 3-nitrotyrosine” value in the test on 3-nitrotyrosine is “reduced”. In the test on IFN-γ, IL-17, the “IFN-γ in the spinal cords of passively immunized mice” value is recorded as “comparable levels” and the “IL-17 in the spinal cords of passively immunized mice” value is “significantly lower levels”. In addition, in test [1], the “TBI-induced increase in brain water content” value is listed as “reduced”.
